Measurements published in patent US10329260B2, “Human plasma kallikrein inhibitors” (BioCryst Pharmaceuticals, Inc., priority 2014, dated 2019).

These molecules were tested against human plasma kallikrein (Homo sapiens (Human), UniProt P03952) (assay: Plasma Kallikrein Activity Assay). Details: 2 nM kallikrein, 80 μM chromogenic substrate S2302, 30° C., pH 7.8; Ki by Cheng-Prusoff equation.
Sequence of human plasma kallikrein (P03952 whole entry partner, looked up): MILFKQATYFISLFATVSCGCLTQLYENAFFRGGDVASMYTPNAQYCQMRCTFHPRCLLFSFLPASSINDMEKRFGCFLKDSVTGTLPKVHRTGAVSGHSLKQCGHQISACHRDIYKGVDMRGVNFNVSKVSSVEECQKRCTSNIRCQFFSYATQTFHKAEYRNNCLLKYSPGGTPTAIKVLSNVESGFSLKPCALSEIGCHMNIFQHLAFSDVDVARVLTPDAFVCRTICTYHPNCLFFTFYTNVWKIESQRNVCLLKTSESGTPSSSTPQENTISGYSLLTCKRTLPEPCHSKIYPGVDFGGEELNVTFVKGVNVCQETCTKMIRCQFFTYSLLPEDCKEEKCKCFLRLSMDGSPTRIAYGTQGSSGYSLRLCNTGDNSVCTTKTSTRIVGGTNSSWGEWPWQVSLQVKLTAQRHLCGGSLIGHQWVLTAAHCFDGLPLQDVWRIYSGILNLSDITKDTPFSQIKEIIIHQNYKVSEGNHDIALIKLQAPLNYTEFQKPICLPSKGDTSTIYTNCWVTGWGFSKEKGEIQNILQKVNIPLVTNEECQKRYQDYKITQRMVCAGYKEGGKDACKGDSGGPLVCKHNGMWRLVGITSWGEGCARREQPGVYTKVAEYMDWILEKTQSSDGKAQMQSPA
Sequence of human plasma kallikrein (P03952 whole entry, looked up): as the sequence (P03952 whole entry partner, looked up) above
Format: biochemical
Method: Plasma Kallikrein Activity Assay.
The effect of compounds of the invention on human plasma kallikrein activity was determined using the chromogenic substrates (DiaPharma Group, Inc., West Chester, Ohio, USA). In these experiments, 2 nM kallikrein (Enzyme Research Laboratories, South Bend, Ind., USA) was incubated with 80 μM S2302 (H-D-Pro-Phe-Arg-p-nitroaniline) in the absence or presence of increasing concentrations of compounds of the invention in a final volume of 200 μL Tris-HCl buffer (200 mM NaCl; 2.5 mM CaCl2; 50 mM Tris-HCl, pH 7.8).
Data were analyzed using SigmaPlot software (Systat Software, Inc., San Jose, Calif., USA) (Four Parameter Logistic Curve).
CC(C)[C@H](N)C(=O)OC(c1ccccc1)c1cccc(NC(=O)c2cc(C(F)(F)F)nn2-c2cccc(CN)c2)c1 (stereo partly drawn) [Compound 81c, (2S)-(3-(1-(3-(aminomethyl)phenyl)-3-(trifluoromethyl)-1H-pyrazole-5-carboxamido)phenyl)(phenyl)methyl 2-amino-3-methylbutanoate] was tested, and the Ki was over 0.1 µM.
In the case of NCc1cccc(-n2nc(C(F)(F)F)cc2C(=O)Nc2c(F)cccc2C(O)c2ccccc2)c1 (stereo not drawn) [Compound 90f, 1-(3-(aminomethyl)phenyl)-N-(2-fluoro-6-(hydroxy(phenyl)methyl)phenyl)-3-(trifluoromethyl)-1H-pyrazole-5-carboxamide], the Ki is reported as over 0.1 µM.
Molecule NCc1cccc(-n2nc(C(F)(F)F)cc2C(=O)Nc2cccc(C(CCC3CC3)N3CCOCC3)c2)c1 (stereo not drawn) [Compound 93b, 1-(3-(aminomethyl)phenyl)-N-(3-(3-cyclopropyl-1-morpholinopropyl)phenyl)-3-(trifluoromethyl)-1H-pyrazole-5-carboxamide] has a Ki of over 0.1 µM.
For NCc1cccc(-n2nc(C(F)(F)F)cc2C(=O)Nc2cc(F)cc(C(O)c3ccccc3)c2)c1 (stereo not drawn) [Compound 97f, 1-(3-(aminomethyl)phenyl)-N-(3-fluoro-5-(hydroxy(phenyl)methyl)phenyl)-3-(trifluoromethyl)-1H-pyrazole-5-carboxamide], the Ki was over 0.1 µM.
Molecule NCc1cccc(-n2nc(C(F)(F)F)cc2C(=O)Nc2cccc(Cc3ccc(O)cc3)c2)c1 [Compound 136a, 1-(3-(Aminomethyl)phenyl)-N-(3-(4-hydroxybenzyl)phenyl)-3-(trifluoromethyl)-1H-pyrazole-5-carboxamide] has a Ki of over 0.1 µM.
With NCc1cccc(-n2nc(C(F)(F)F)cc2C(=O)Nc2cccc(Cc3cccc(O)c3)c2)c1 [Compound 137b, 1-(3-(aminomethyl)phenyl)-N-(3-(3-hydroxybenzyl)phenyl)-3-(trifluoromethyl)-1H-pyrazole-5-carboxamide] the Ki was over 0.1 µM.
In the case of NCc1cccc(-n2nc(C(F)(F)F)cc2C(=O)Nc2cccc(C(NCCO)c3ccccc3)c2)c1 (stereo not drawn) [Compound 145c, 1-(3-(Aminomethyl)phenyl)-N-(3-((2-hydroxyethylamino)(phenyl)methyl)phenyl)-3-(trifluoromethyl)-1H-pyrazole-5-carboxamide], the Ki is reported as over 0.1 µM.
O=C(Nc1cc(C(O)(CCC2CC2)c2ccccn2)ccc1F)c1cc(C(F)(F)F)nn1-c1ccc(Cl)cc1 (stereo not drawn) [Compound 157a, 1-(4-chlorophenyl)-N-(5-(3-cyclopropyl-1-hydroxy-1-(pyridin-2-yl)propyl)-2-fluorophenyl)-3-(trifluoromethyl)-1H-pyrazole-5-carboxamide] was tested, and the Ki was over 0.1 µM.
With O=C(Nc1cc(C(O)(CCC2CC2)c2ccccn2)ccc1F)c1cc(C(F)(F)F)nn1-c1ccc2cc(Cl)ccc2c1 (stereo not drawn) [Compound 158a, 1-(6-chloronaphthalen-2-yl)-N-(5-(3-cyclopropyl-1-hydroxy-1-(pyridin-2-yl)propyl)-2-fluorophenyl)-3-(trifluoromethyl)-1H-pyrazole-5-carboxamide] the Ki was over 0.1 µM.
Molecule O=C(Nc1cc(C(O)(CCC2CC2)c2ccccn2)ccc1F)c1cc(C(F)(F)F)nn1-c1ccc(Cl)cn1 (stereo not drawn) [Compound 159a, 1-(5-chloropyridin-2-yl)-N-(5-(3-cyclopropyl-1-hydroxy-1-(pyridin-2-yl)propyl)-2-fluorophenyl)-3-(trifluoromethyl)-1H-pyrazole-5-carboxamide] has a Ki of over 0.1 µM.
For COc1ccc(-n2nc(C(F)(F)F)cc2C(=O)Nc2cc(C(O)(CCC3CC3)c3ccccn3)ccc2F)cc1 (stereo not drawn) [Compound 160a, N-(5-(3-cyclopropyl-1-hydroxy-1-(pyridin-2-yl)propyl)-2-fluorophenyl)-1-(4-methoxyphenyl)-3-(trifluoromethyl)-1H-pyrazole-5-carboxamide], the Ki was over 0.1 µM.
With NCc1cccc(-n2nc(C(F)(F)F)cc2C(=O)Nc2cc3c(cc2F)CNCC3)c1 [Compound 161e, 1-(3-(aminomethyl)phenyl)-N-(7-fluoro-1,2,3,4-tetrahydroisoquinolin-6-yl)-3-(trifluoromethyl)-1H-pyrazole-5-carboxamide] the Ki was over 0.1 µM.
In the case of NCc1cccc(-n2nc(C(F)(F)F)cc2C(=O)Nc2ccc3c(c2F)CCNC3)c1 [Compound 162c, 1-(3-(aminomethyl)phenyl)-N-(5-fluoro-1,2,3,4-tetrahydroisoquinolin-6-yl)-3-(trifluoromethyl)-1H-pyrazole-5-carboxamide], the Ki is reported as over 0.1 µM.
NCc1cccc(-n2nc(C(F)(F)F)cc2C(=O)Nc2cc3c(cc2F)CCNC3)c1 [Compound 163g, 1-(3-(aminomethyl)phenyl)-N-(6-fluoro-1,2,3,4-tetrahydroisoquinolin-7-yl)-3-(trifluoromethyl)-1H-pyrazole-5-carboxamide] showed a Ki of over 0.1 µM.
NCc1cccc(-n2nc(C(F)(F)F)cc2C(=O)Nc2cccc(C3OC(=O)Nc4ccccc43)c2)c1 (stereo not drawn) [Compound 167f, 1-(3-(aminomethyl)phenyl)-N-(3-(2-oxo-2,4-dihydro-1H-benzo[d] [1,3]oxazin-4-yl)phenyl)-3-(trifluoromethyl)-1H-pyrazole-5-carboxamide] gave a Ki of over 0.1 µM.
With NCc1cccc(-n2nc(C(F)(F)F)cc2C(=O)Nc2cccc(C(c3ccccc3)N3CCCC3CO)c2)c1 (stereo not drawn) [Compound 169b, 1-(3-(Aminomethyl)phenyl)-N-(3-((2-(hydroxymethyl)pyrrolidin-1-yl)(phenyl)methyl)phenyl)-3-(trifluoromethyl)-1H-pyrazole-5-carboxamide] the Ki was over 0.1 µM.
NCc1cccc(-n2nc(C(F)(F)F)cc2C(=O)Nc2cccc(C(c3ccccc3)N3CCC(O)C3)c2)c1 (stereo not drawn) [Compound 170b, 1-(3-(Aminomethyl)phenyl)-N-(3-((3-hydroxypyrrolidin-1-yl)(phenyl)methyl)phenyl)-3-(trifluoromethyl)-1H-pyrazole-5-carboxamide] gave a Ki of over 0.1 µM.
NCc1cccc(-n2nc(C(F)(F)F)cc2C(=O)Nc2cccc(C(NC3CCCCCC3)c3ccccc3)c2)c1 (stereo not drawn) [Compound 171b, 1-(3-(Aminomethyl)phenyl)-N-(3-((cycloheptylamino)(phenyl)methyl)phenyl)-3-(trifluoromethyl)-1H-pyrazole-5-carboxamide] showed a Ki of over 0.1 µM.
In the case of CCCCCNC(c1ccccc1)c1cccc(NC(=O)c2cc(C(F)(F)F)nn2-c2cccc(CN)c2)c1 (stereo not drawn) [Compound 172b, 1-(3-(Aminomethyl)phenyl)-N-(3-((pentylamino)(phenyl)methyl)phenyl)-3-(trifluoromethyl)-1H-pyrazole-5-carboxamide], the Ki is reported as over 0.1 µM.
Molecule CC(CO)NC(c1ccccc1)c1cccc(NC(=O)c2cc(C(F)(F)F)nn2-c2cccc(CN)c2)c1 (stereo not drawn) [Compound 173b, 1-(3-(aminomethyl)phenyl)-N-(3-(((1-hydroxypropan-2-yl)amino)(phenyl)methyl)phenyl)-3-(trifluoromethyl)-1H-pyrazole-5-carboxamide] has a Ki of over 0.1 µM.
CC(C)(CO)NC(c1ccccc1)c1cccc(NC(=O)c2cc(C(F)(F)F)nn2-c2cccc(CN)c2)c1 (stereo not drawn) [Compound 174b, 1-(3-(aminomethyl)phenyl)-N-(3-(((1-hydroxy-2-methylpropan-2-yl)amino)(phenyl)methyl)phenyl)-3-(trifluoromethyl)-1H-pyrazole-5-carboxamide] was tested, and the Ki was over 0.1 µM.
Work on NCc1cccc(-n2nc(C(F)(F)F)cc2C(=O)Nc2cccc(C(NCC3CCCO3)c3ccccc3)c2)c1 (stereo not drawn) [Compound 175b, 1-(3-(aminomethyl)phenyl)-N-(3-(phenyl(((tetrahydrofuran-2-yl)methyl)amino)methyl)phenyl)-3-(trifluoromethyl)-1H-pyrazole-5-carboxamide] yielded a Ki of over 0.1 µM.
Work on CC(C)CCNC(c1ccccc1)c1cccc(NC(=O)c2cc(C(F)(F)F)nn2-c2cccc(CN)c2)c1 (stereo not drawn) [Compound 176b, 1-(3-(aminomethyl)phenyl)-N-(3-((isopentylamino)(phenyl)methyl)phenyl)-3-(trifluoromethyl)-1H-pyrazole-5-carboxamide] yielded a Ki of over 0.1 µM.
With CCC(C)CNC(c1ccccc1)c1cccc(NC(=O)c2cc(C(F)(F)F)nn2-c2cccc(CN)c2)c1 (stereo not drawn) [Compound 177b, 1-(3-(Aminomethyl)phenyl)-N-(3-(((2-methylbutyl)amino)(phenyl)methyl)phenyl)-3-(trifluoromethyl)-1H-pyrazole-5-carboxamide] the Ki was over 0.1 µM.
NCc1cccc(-n2nc(C(F)(F)F)cc2C(=O)Nc2cccc(C(c3ccccc3)N(CCO)CCO)c2)c1 (stereo not drawn) [Compound 178b, 1-(3-(aminomethyl)phenyl)-N-(3-((bis(2-hydroxyethyl)amino)(phenyl)methyl)phenyl)-3-(trifluoromethyl)-1H-pyrazole-5-carboxamide] gave a Ki of over 0.1 µM.
For NCc1cccc(-n2nc(C(F)(F)F)cc2C(=O)Nc2cccc(C(NCc3cccnc3)c3ccccc3)c2)c1 (stereo not drawn) [Compound 179b, 1-(3-(Aminomethyl)phenyl)-N-(3-(phenyl((pyridin-3-ylmethyl)amino)methyl)phenyl)-3-(trifluoromethyl)-1H-pyrazole-5-carboxamide], the Ki was over 0.1 µM.
CCCCNC(c1ccccc1)c1cccc(NC(=O)c2cc(C(F)(F)F)nn2-c2cccc(CN)c2)c1 (stereo not drawn) [Compound 180b, 1-(3-(Aminomethyl)phenyl)-N-(3-((butylamino)(phenyl)methyl)phenyl)-3-(trifluoromethyl)-1H-pyrazole-5-carboxamide] was tested, and the Ki was over 0.1 µM.
In the case of CC(O)CNC(c1ccccc1)c1cccc(NC(=O)c2cc(C(F)(F)F)nn2-c2cccc(CN)c2)c1 (stereo not drawn) [Compound 182b, 1-(3-(aminomethyl)phenyl)-N-(3-(((2-hydroxypropyl)amino)(phenyl)methyl)phenyl)-3-(trifluoromethyl)-1H-pyrazole-5-carboxamide], the Ki is reported as over 0.1 µM.
In the case of NCc1cccc(-n2nc(C(F)(F)F)cc2C(=O)Nc2cccc(C(NCCCn3ccnc3)c3ccccc3)c2)c1 (stereo not drawn) [Compound 183b, N-(3-(((3-(1H-Imidazol-1-yl)propyl)amino)(phenyl)methyl)phenyl)-1-(3-(aminomethyl)phenyl)-3-(trifluoromethyl)-1H-pyrazole-5-carboxamide], the Ki is reported as over 0.1 µM.
Work on CN(C)C(c1ccccc1)c1cccc(NC(=O)c2cc(C(F)(F)F)nn2-c2cccc(CN)c2)c1 (stereo not drawn) [Compound 184b, 1-(3-(Aminomethyl)phenyl)-N-(3-((dimethylamino)(phenyl)methyl)phenyl)-3-(trifluoromethyl)-1H-pyrazole-5-carboxamide] yielded a Ki of over 0.1 µM.
